Source: US12077503B2, “Substituted cyclic amides and their use as herbicides” (FMC CORPORATION, priority 2015, dated 2024)

Tests used:
Format in all cases: in vivo
rice (Oryra sativa) = assay: Test B flooded paddy test; details: Oryza sativa, 250 g ai/ha, Flood; 0 to 100 scale where 0 is no effect and 100 is complete control; read-out: Rice plant response rating
Outline: (§1)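 Compound goes directly into floodwater once pots are flooded 3 cm above soil, targeting plants at two leaves; the water depth is then held for the test duration. Plants sit 13–15 d in a greenhouse and are rated visually, 100 denoting complete control.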

[1] = tested on: ducksalad (Heteranthera limosa); assay: Test B flooded paddy test; details: Heteranthera limosa, 250 g ai/ha, Flood; 0 to 100 scale where 0 is no effect and 100 is complete control; read-out: Ducksalad plant response rating
Outline: as §1

[2] = tested on: sedge, umbrella (small-flower umbrella sedge, Cyperus difformis); assay: Test B flooded paddy test; details: Cyperus difformis, 250 g ai/ha, Flood; 0 to 100 scale where 0 is no effect and 100 is complete control; read-out: Sedge, Umbrella plant response rating
Outline: as §1

[3] = tested on: barnyardgrass (Echinochloa crus-galli); assay: Test B flooded paddy test; details: Echinochloa crus-galli, 250 g ai/ha, Flood; 0 to 100 scale where 0 is no effect and 100 is complete control; read-out: Barnyardgrass plant response rating
Outline: as §1

Kochia (Kochia scoparia) [4] = assay: Test A preemergence; details: Bassia scoparia, pre-emergence, 240 h, 0 to 100 scale where 0 is no effect and 100 is complete control, read-out: Kochia plant response rating
Outline: (§2)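 Visual injury, scored on a 0–100 scale relative to untreated controls, was recorded about 10 d after application. Treatments were a preemergence soil spray over planted seeds or a postemergence spray on plants at the one- to two-leaf stage, 2 to 10 cm tall, all in loam soil–sand blend in the greenhouse.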

[5] = tested on: ragweed (common ragweed, Ambrosia elatior); assay: Test A preemergence; details: Ambrosia artemisiifolia, pre-emergence, 240 h, 0 to 100 scale where 0 is no effect and 100 is complete control, read-out: Ragweed plant response rating
Outline: as §2

[6] = tested on: barnyardgrass (Echinochloa crus-galli); assay: Test A preemergence; details: Echinochloa crus-galli, pre-emergence, 240 h, 0 to 100 scale where 0 is no effect and 100 is complete control, read-out: Barnyardgrass plant response rating
Outline: as §2

[7] = tested on: pigweed (Amaranthus retroflexus); assay: Test A preemergence; details: Amaranthus retroflexus, pre-emergence, 240 h, 0 to 100 scale where 0 is no effect and 100 is complete control, read-out: Pigweed plant response rating
[8] = tested on: ryegrass, Italian (Italian ryegrass, Lolium multiflorum); assay: Test A preemergence; details: Lolium multiflorum, pre-emergence, 240 h, 0 to 100 scale where 0 is no effect and 100 is complete control, read-out: Ryegrass, Italian plant response rating
Outline: as §2

[9] = tested on: giant foxtail (Setaria faberii); assay: Test A preemergence; details: Setaria faberi, pre-emergence, 240 h, 0 to 100 scale where 0 is no effect and 100 is complete control, read-out: Foxtail, Giant plant response rating
Outline: as §2

Kochia (Kochia scoparia) [10] = assay: Test A postemergence; details: Bassia scoparia, post-emergence, 240 h
Outline: as §2

[11] = tested on: Galium (catchweed bedstraw, Galium aparine); assay: Test A postemergence; details: Galium, post-emergence, 240 h
Outline: as §2

[12] = tested on: ragweed (common ragweed, Ambrosia elatior); assay: Test A postemergence; details: Ambrosia artemisiifolia, post-emergence, 240 h
Outline: as §2

corn (Zea mays) = assay: Test A postemergence; details: Zea mays, post-emergence, 240 h
Outline: as §2

[13] = tested on: barnyardgrass (Echinochloa crus-galli); assay: Test A postemergence; details: Echinochloa crus-galli, post-emergence, 240 h
Outline: as §2

[14] = tested on: blackgrass (Alopecurus myosuroides); assay: Test A postemergence; details: Alopecurus myosuroides, post-emergence, 240 h
Outline: as §2

[15] = tested on: wheat (Triticum aestivum); assay: Test A postemergence; details: Triticum aestivum, post-emergence, 240 h
Outline: as §2

[16] = tested on: pigweed (Amaranthus retroflexus); assay: Test A postemergence; details: Amaranthus retroflexus, post-emergence, 240 h
Outline: as §2

[17] = tested on: ryegrass, Italian (Italian ryegrass, Lolium multiflorum); assay: Test A postemergence; details: Lolium multiflorum, post-emergence, 240 h
Outline: as §2

[18] = tested on: giant foxtail (Setaria faberii); assay: Test A postemergence; details: Setaria faberi, post-emergence, 240 h
Outline: as §2

[19] = 125 g ai/ha, preemergence, approx. 10 d

CSc1ccccc1NC(=O)[C@H]1C(=O)N(C)C[C@@H]1c1cc(C(F)F)cs1 [Compound 1088]
75%: pest or weed control at 250 g/ha [1]
100%: pest or weed control at 125 g/ha [9, 19]
30%: pest or weed control at 250 g/ha [3] | pest or weed control at 31 g/ha (Kochia (Kochia scoparia) [4]; 31 g ai/ha, Preemergence) | pest or weed control at 125 g/ha [6, 19] | pest or weed control at 125 g/ha ([11]; 125 g ai/ha, postemergence, visual injury on 0 to 100 scale (0 no effect, 100 complete control), approx. 10 d, read-out: Galium plant response rating) | pest or weed control at 125 g/ha ([13]; 125 g ai/ha, postemergence, visual injury on 0 to 100 scale (0 no effect, 100 complete control), approx. 10 d, read-out: Barnyardgrass plant response rating)
0%: pest or weed control at 250 g/ha (rice (Oryra sativa)) | pest or weed control at 250 g/ha [2] | pest or weed control at 31 g/ha ([5]; 31 g ai/ha, Preemergence) | pest or weed control at 125 g/ha [5, 19] | pest or weed control at 31 g/ha ([6]; 31 g ai/ha, Preemergence) | pest or weed control at 31 g/ha ([7]; 31 g ai/ha, Preemergence) | pest or weed control at 125 g/ha [7, 19] | pest or weed control at 31 g/ha ([8]; 31 g ai/ha, Preemergence) | pest or weed control at 125 g/ha [8, 19] | pest or weed control at 31 g/ha ([9]; 31 g ai/ha, Preemergence) | pest or weed control at 125 g/ha (Kochia (Kochia scoparia) [10]; 125 g ai/ha, postemergence, visual injury on 0 to 100 scale (0 no effect, 100 complete control), approx. 10 d, read-out: Kochia plant response rating) | pest or weed control at 31 g/ha (Kochia (Kochia scoparia) [10]; Postemergence, 31 g ai/ha, visual injury after approx. 10 d, 0 to 100 scale, 0 no effect, 100 complete control, read-out: Plant response rating, Kochia) | pest or weed control at 125 g/ha ([12]; 125 g ai/ha, postemergence, visual injury on 0 to 100 scale (0 no effect, 100 complete control), approx. 10 d, read-out: Ragweed plant response rating) | pest or weed control at 31 g/ha ([12]; Postemergence, 31 g ai/ha, visual injury after approx. 10 d, 0 to 100 scale, 0 no effect, 100 complete control, read-out: Plant response rating, Ragweed) | plant injury at 125 g/ha (corn (Zea mays); 125 g ai/ha, postemergence, visual injury on 0 to 100 scale (0 no effect, 100 complete control), approx. 10 d, read-out: Corn plant response rating) | Corn plant response rating (crop injury, 0 = no effect, 100 = complete kill) at 31 g/ha (corn (Zea mays); Postemergence, 31 g ai/ha, visual injury after approx. 10 d, 0 to 100 scale, 0 no effect, 100 complete control) | pest or weed control at 31 g/ha ([13]; Postemergence, 31 g ai/ha, visual injury after approx. 10 d, 0 to 100 scale, 0 no effect, 100 complete control, read-out: Plant response rating, Barnyardgrass) | pest or weed control at 125 g/ha ([14]; 125 g ai/ha, postemergence, visual injury on 0 to 100 scale (0 no effect, 100 complete control), approx. 10 d, read-out: Blackgrass plant response rating) | pest or weed control at 31 g/ha ([14]; Postemergence, 31 g ai/ha, visual injury after approx. 10 d, 0 to 100 scale, 0 no effect, 100 complete control, read-out: Plant response rating, Blackgrass) | plant injury at 125 g/ha ([15]; 125 g ai/ha, postemergence, visual injury on 0 to 100 scale (0 no effect, 100 complete control), approx. 10 d, read-out: Wheat plant response rating) | plant injury at 31 g/ha ([15]; Postemergence, 31 g ai/ha, visual injury after approx. 10 d, 0 to 100 scale, 0 no effect, 100 complete control, read-out: Plant response rating, Wheat) | pest or weed control at 125 g/ha ([16]; 125 g ai/ha, postemergence, visual injury on 0 to 100 scale (0 no effect, 100 complete control), approx. 10 d, read-out: Pigweed plant response rating) | pest or weed control at 31 g/ha ([16]; Postemergence, 31 g ai/ha, visual injury after approx. 10 d, 0 to 100 scale, 0 no effect, 100 complete control, read-out: Plant response rating, Pigweed) | pest or weed control at 125 g/ha ([17]; 125 g ai/ha, postemergence, visual injury on 0 to 100 scale (0 no effect, 100 complete control), approx. 10 d, read-out: Ryegrass, Italian plant response rating) | pest or weed control at 31 g/ha ([17]; Postemergence, 31 g ai/ha, visual injury after approx. 10 d, 0 to 100 scale, 0 no effect, 100 complete control, read-out: Plant response rating, Ryegrass, Italian) | pest or weed control at 31 g/ha ([18]; Postemergence, 31 g ai/ha, visual injury after approx. 10 d, 0 to 100 scale, 0 no effect, 100 complete control, read-out: Plant response rating, Foxtail, Giant)
20%: pest or weed control at 125 g/ha (Kochia (Kochia scoparia) [4]; [19]) | pest or weed control at 31 g/ha ([11]; Postemergence, 31 g ai/ha, visual injury after approx. 10 d, 0 to 100 scale, 0 no effect, 100 complete control, read-out: Plant response rating, Galium) | pest or weed control at 125 g/ha ([18]; 125 g ai/ha, postemergence, visual injury on 0 to 100 scale (0 no effect, 100 complete control), approx. 10 d, read-out: Foxtail, Giant plant response rating)
